Reference: patent US4132790A
Like-named read-outs stand apart in the source and are kept apart here.

Experiments:
solubility = format: physicochemical; conditions: monoammonium salt
[1] = system: Ascaris lumbricoides var. suum; assay: anthelmintic test in infected mice, treated feed; format: in vivo; conditions: Example 13, 0.05 percent in diet, control 2.66
From the text: The feeds were utilized as diets for separate groups of mice, five mice per group. About twelve hours after initiation of the feeding, the mice were infected with Ascaris lumbricoides var. suum ova. Another group of five mice was fed the non-medicated feed to serve as a control but was similarly infected at the same time with Ascaris lumbricoides var. suum. All groups were fed their respective feed and maintained under normal laboratory conditions for a period of eight days, at which time all mice were taken off feed. On the ninth day, all mice were sacrified and the lungs examined to determine the presence, and if present, numbers, of lesions of Ascaris lumbricoides var. suum.
Another evaluation was conducted under the procedures reported in Example II, except that the rates were varied. The results were as follows:
In a further evaluation, the monoammonium salts of A16886I and A16886II were separately evaluated for the control of Ascaris lumbricoides var. suum. The evaluations were conducted in accordance with the procedure reported in Example 11 at a concentration in the diet of 0.05 percent.

Pseudomonas solanacearum = format: in vivo; conditions: scale 0 to 4; for Disease Rating: light infection in controls; for rating: heavy infestation in controls
tomato plant = assay: field trial, crop injury; format: in vivo; conditions: scale 0 = no injury, 10 = dead plants; for Crop Injury Ratings First Reading: one week; for Crop Injury Ratings Second Reading: two weeks
Protocol: (§1) A mixture of the monoammonium salt of A16886I and the monoammonium salt of A16886II was tested under field conditions for the control of Xanthomonas vesicatoria (bacterial spot) on mature bearing tomato plant. The mixture of the two salts was dispersed in water at a concentration of 100, 200, or 400 parts per million and applied to the plants at the rate of 75 gallons per acre. Application was made with a CO2 sprayer at 50 psi. Plants were sprayed twice, on successive days; after the second spray had dried, all plants were wounded by sand blasting and then within one minute the plants were inoculated with a bacterial inoculum of Xanthomonas vesicatoria. Three days later, a third spray application of the aqueous formulation of A16886 was made. Readings were made one week and two weeks after the last spray treatment. Controls consisted of groups of plants (1) sand blasted and inoculated; (2) sand blasted only; (3) untreated; and (4) treated with streptomycin (on the same three-day spraying schedule, at a concentration of 100, 200, or 400 parts per million of aqueous solution, using a rate of 75 gallons per acre), sand blasted, and inoculated. The results were as set forth in the following table, in which crop injury is reported on a scale of 0-10, with 0 = no injury and 10 = dead plants; and control of bacterial spot is reported on a percentage basis.

Xanthomonas vesicatoria = assay: field trial, bacterial spot control on tomato plants; format: in vivo; conditions: for Percent Bacterial Spot Control First Reading: one week; for Percent Bacterial Spot Control Second Reading: two weeks
Protocol: as §1

SMILES | solubility in acetonitrile and other organic solvents (solubility) | solubility in lower alkanols (solubility) | solubility in water (solubility) | Average Number of Lung Lesions Per Group [1] | Disease Rating (Pseudomonas solanacearum; Example 7, 10 ppm) | Disease Rating (Pseudomonas solanacearum; Example 7, 100 ppm) | rating (Pseudomonas solanacearum; Example 8, 200 ppm) | rating (Pseudomonas solanacearum; Example 8, 400 ppm) | Crop Injury Ratings First Reading (tomato plant; 100 parts/million) | Crop Injury Ratings Second Reading (tomato plant; 100 parts/million) | Crop Injury Ratings First Reading (tomato plant; 200 parts/million) | Crop Injury Ratings Second Reading (tomato plant; 200 parts/million) | Crop Injury Ratings First Reading (tomato plant; 400 parts/million) | Crop Injury Ratings Second Reading (tomato plant; 400 parts/million) | Percent Bacterial Spot Control First Reading (Xanthomonas vesicatoria; 100 parts/million) | Percent Bacterial Spot Control Second Reading (Xanthomonas vesicatoria; 100 parts/million) | Percent Bacterial Spot Control First Reading (Xanthomonas vesicatoria; 200 parts/million) | Percent Bacterial Spot Control Second Reading (Xanthomonas vesicatoria; 200 parts/million) | Percent Bacterial Spot Control First Reading (Xanthomonas vesicatoria; 400 parts/million) | Percent Bacterial Spot Control Second Reading (Xanthomonas vesicatoria; 400 parts/million)
COC1(NC(=O)CCCC(N)C(=O)O)C(=O)N2C(C(=O)O)=C(COC(N)=O)CS[C@@H]21 (some centres unmarked) [A16886I, 7-(5-amino-5-carboxyvaleramido)-3-(carbamoyloxymethyl)-7-methoxy-3-cephem-4-carboxylic acid] | essentially insoluble | slightly soluble | very soluble | 0.46 | 2 | 4 | 4 | 4 | – | – | – | – | – | – | – | – | – | – | – | –
NC(=O)OCC1=C(C(=O)O)N2C(=O)C(NC(=O)CCCC(N)C(=O)O)[C@H]2SC1 (some centres unmarked) [A16886II, 7-(5-amino-5-carboxyvaleramido)-3-(carbamoyloxymethyl)-3-cephem-4-carboxylic acid] | essentially insoluble | slightly soluble | very soluble | 0.20 | 1 | 4 | – | – | – | – | – | – | – | – | – | – | – | – | – | –
[H]/N=C(/N)N[C@H]1[C@H](O)[C@@H](O)[C@H](O[C@@H]2O[C@@H](C)[C@](O)(C=O)[C@H]2O[C@@H]2O[C@@H](CO)[C@H](O)[C@@H](O)[C@@H]2NC)[C@@H](N/C(N)=N\[H])[C@@H]1O [Streptomycin] | – | – | – | – | – | – | – | – | 0 | 0 | 0 | 0 | 0 | 0 | 83% | 57% | 81% | 37% | 83% | 59%
